From the supplement of paper PMC11061612

What was measured:
SN-38 = compound: CCc1c2c(nc3ccc(O)cc13)-c1cc3c(c(=O)n1C2)COC(=O)[C@]3(O)CC [SN-38]; settings: max 0.3 µM
Method in brief: (§1)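 After 24 hours at 37°C and 5% CO2 in 1536-well plates holding 7.5 μl of DMEM/F12 or RPMI with 10% FBS, cancer cell lines were dosed for 72 hours, with final DMSO typically 0.2%. Viability came from CellTiter-Glo 2.0 luminescence, scaled between the means of blank wells and DMSO wells. A non-linear mixed effects model fitted a two-parameter logistic curve to each dose response to give the single-agent IC50.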

[1] = compound: O=C(Nc1ccc2[nH]nc(-c3ccncc3)c2c1)[C@@H]1CCN(CC(=O)N2CCN(c3ccc(-c4ncccn4)cc3)CC2)C1; settings: max 5 µM
Method in brief: as §1

Palbociclib = compound: CC(=O)c1c(C)c2cnc(Nc3ccc(N4CCNCC4)cn3)nc2n(C2CCCC2)c1=O [Palbociclib]; settings: max 10 µM
Method in brief: as §1

AZD1390 = compound: CC(C)n1c(=O)n(C)c2cnc3cc(F)c(-c4ccc(OCCCN5CCCCC5)nc4)cc3c21 [AZD1390]; settings: max 0.3 µM
Method in brief: as §1

AZD6738 = compound: C[C@@H]1COCCN1C2=NC(=NC(=C2)C3(CC3)[S@](=N)(=O)C)C4=C5C=CNC5=NC=C4 [AZD6738]; settings: max 10 µM
Method in brief: as §1

AZD0156 = compound: CN(C)CCCOc1ccc(-c2ccc3ncc4c(c3c2)n(C2CCOCC2)c(=O)n4C)cn1 [AZD0156]; settings: max 3 µM
Method in brief: as §1

SRA737 = compound: N#Cc1cnc(Nc2cc(NC[C@H]3CNCCO3)c(C(F)(F)F)cn2)cn1 [SRA737]; settings: max 10 µM
Method in brief: as §1

5-Fluorouracil = compound: O=c1[nH]cc(F)c(=O)[nH]1 [5-Fluorouracil]; settings: max 20 µM
Method in brief: as §1

Carboplatin = compound: C1CC(C1)(C(=O)[O-])C(=O)[O-].N.N.[Pt+2] [Carboplatin]; settings: max 10 µM
Method in brief: as §1

Taselisib = compound: Cc1nc(-c2cn3c(n2)-c2ccc(-c4cnn(C(C)(C)C(N)=O)c4)cc2OCC3)n(C(C)C)n1 [Taselisib]; settings: max 10 µM
Method in brief: as §1

Etoposide = compound: COc1cc([C@@H]2c3cc4c(cc3[C@@H](O[C@@H]3O[C@@H]5CO[C@@H](C)O[C@H]5[C@H](O)[C@H]3O)[C@H]3COC(=O)[C@H]23)OCO4)cc(OC)c1O [Etoposide]; settings: max 10 µM
Method in brief: as §1

Lapatinib = compound: CS(=O)(=O)CCNCc1ccc(-c2ccc3ncnc(Nc4ccc(OCc5cccc(F)c5)c(Cl)c4)c3c2)o1 [Lapatinib]; settings: max 10 µM
Method in brief: as §1

AZD4320 = compound: CN(CC[C@H](CSC1=CC=CC=C1)NC2=C(C=C(C=C2)S(=O)(=O)NC(=O)C3=CC=C(C=C3)N4CCC(CC4)[C@H](C5=CC=CC=C5C6=CC=C(C=C6)Cl)O)S(=O)(=O)C(F)(F)F)CCO [AZD4320]; settings: max 1 µM
Method in brief: as §1

Doxorubicin = compound: COc1cccc2c1C(=O)c1c(O)c3c(c(O)c1C2=O)C[C@@](O)(C(=O)CO)C[C@@H]3O[C@H]1C[C@H](N)[C@H](O)[C@H](C)O1 [Doxorubicin]; settings: max 1 µM
Method in brief: as §1

Venetoclax = compound: CC1(C)CCC(CN2CCN(c3ccc(C(=O)NS(=O)(=O)c4ccc(NCC5CCOCC5)c([N+](=O)[O-])c4)c(Oc4cnc5[nH]ccc5c4)c3)CC2)=C(c2ccc(Cl)cc2)C1 [Venetoclax]; settings: max 1 µM
Method in brief: as §1

AZD8186 = compound: C[C@@H](Nc1cc(F)cc(F)c1)c1cc(C(=O)N(C)C)cc2c(=O)cc(N3CCOCC3)oc12 [AZD8186]; settings: max 10 µM
Method in brief: as §1

AZD1775 = compound: C=CCn1c(=O)c2cnc(Nc3ccc(N4CCN(C)CC4)cc3)nc2n1-c1cccc(C(C)(C)O)n1 [AZD1775]; settings: max 3 µM
Method in brief: as §1

Savolitinib = compound: C[C@@H](c1ccc2nccn2c1)n1nnc2ncc(-c3cnn(C)c3)nc21 [Savolitinib]; settings: max 1 µM
Method in brief: as §1

Crizotinib = compound: C[C@@H](Oc1cc(-c2cnn(C3CCNCC3)c2)cnc1N)c1c(Cl)ccc(F)c1Cl [Crizotinib]; settings: max 10 µM
Method in brief: as §1

MK-2206 = compound: NC1(c2ccc(-c3nc4ccn5c(=O)[nH]nc5c4cc3-c3ccccc3)cc2)CCC1 [MK-2206]; settings: max 10 µM
Method in brief: as §1

Paclitaxel = compound: CC(=O)O[C@H]1C(=O)[C@@]2(C)[C@H]([C@H](OC(=O)c3ccccc3)[C@]3(O)C[C@H](OC(=O)[C@H](O)[C@@H](NC(=O)c4ccccc4)c4ccccc4)C(C)=C1C3(C)C)[C@]1(OC(C)=O)CO[C@@H]1C[C@@H]2O [Paclitaxel]; settings: max 3 µM
Method in brief: as §1

AZD5153 = compound: COc1nnc2ccc(N3CCC(c4ccc(OCCN5CCN(C)C(=O)[C@H]5C)cc4)CC3)nn12 [AZD5153]; settings: max 1 µM
Method in brief: as §1

Gefitinib = compound: COc1cc2ncnc(Nc3ccc(F)c(Cl)c3)c2cc1OCCCN1CCOCC1 [Gefitinib]; settings: max 10 µM
Method in brief: as §1

AZD5363 = compound: C1CN(CCC1(C(=O)N[C@@H](CCO)C2=CC=C(C=C2)Cl)N)C3=NC=NC4=C3C=CN4 [AZD5363]; settings: max 10 µM
Method in brief: as §1

Trametinib = compound: CC(=O)Nc1cccc(-n2c(=O)n(C3CC3)c(=O)c3c(Nc4ccc(I)cc4F)n(C)c(=O)c(C)c32)c1 [Trametinib]; settings: max 1 µM
Method in brief: as §1

Olaparib = compound: O=C(c1cc(Cc2n[nH]c(=O)c3ccccc23)ccc1F)N1CCN(C(=O)C2CC2)CC1 [Olaparib]; settings: max 10 µM
Method in brief: as §1

SG3199 = compound: CC1=CN2[C@@H](C1)C=NC3=CC(=C(C=C3C2=O)OC)OCCCCCOC4=C(C=C5C(=C4)N=C[C@@H]6CC(=CN6C5=O)C)OC [SG3199]; settings: max 0.001 µM
Method in brief: as §1

Gemcitabine = compound: Nc1ccn([C@@H]2O[C@H](CO)[C@@H](O)C2(F)F)c(=O)n1 [Gemcitabine]; settings: max 0.3 µM
Method in brief: as §1

Prexasertib = compound: COc1cccc(OCCCN)c1-c1cc(Nc2cnc(C#N)cn2)n[nH]1 [Prexasertib]; settings: max 1 µM
Method in brief: as §1

Alisertib = compound: COc1cc(Nc2ncc3c(n2)-c2ccc(Cl)cc2C(c2c(F)cccc2OC)=NC3)ccc1C(=O)O [Alisertib]; settings: max 10 µM
Method in brief: as §1

AZD7648 = compound: Cc1cc2ncnn2cc1Nc1ncc2c(n1)n(C1CCOCC1)c(=O)n2C [AZD7648]; settings: max 10 µM
Method in brief: as §1

AZD5991 = compound: Cc1c2c(nn1C)CSCc1cc(n(C)n1)CSc1cc(c3ccccc3c1)OCCCc1c(C(=O)O)n(C)c3c-2c(Cl)ccc13 [AZD5991]; settings: max 1 µM
Method in brief: as §1

Selumetinib = compound: Cn1cnc2c(F)c(Nc3ccc(Br)cc3Cl)c(C(=O)NOCCO)cc21 [Selumetinib]; settings: max 10 µM
Method in brief: as §1

Dasatinib = compound: CC1=C(C(=CC=C1)Cl)NC(=O)C2=CN=C(S2)NC3=CC(=NC(=N3)C)N4CCN(CC4)CCO [Dasatinib]; settings: max 2 µM
Method in brief: as §1

AZD2811 = compound: CCN(CCO)CCCOc1ccc2c(Nc3cc(CC(=O)Nc4cccc(F)c4)[nH]n3)ncnc2c1 [AZD2811]; settings: max 1 µM
Method in brief: as §1

Cell Line	IC50, cell viability 72 h (SN-38)	IC50, cell viability 72 h [1]	IC50, cell viability 72 h (Palbociclib)	IC50, cell viability 72 h (AZD1390)	IC50, cell viability 72 h (AZD6738)	IC50, cell viability 72 h (AZD0156)	IC50, cell viability 72 h (SRA737)	IC50, cell viability 72 h (5-Fluorouracil)	IC50, cell viability 72 h (Carboplatin)	IC50, cell viability 72 h (Taselisib)	IC50, cell viability 72 h (Etoposide)	IC50, cell viability 72 h (Lapatinib)	IC50, cell viability 72 h (AZD4320)	IC50, cell viability 72 h (Doxorubicin)	IC50, cell viability 72 h (Venetoclax)	IC50, cell viability 72 h (AZD8186)	IC50, cell viability 72 h (AZD1775)	IC50, cell viability 72 h (Savolitinib)	IC50, cell viability 72 h (Crizotinib)	IC50, cell viability 72 h (MK-2206)	IC50, cell viability 72 h (Paclitaxel)	IC50, cell viability 72 h (AZD5153)	IC50, cell viability 72 h (Gefitinib)	IC50, cell viability 72 h (AZD5363)	IC50, cell viability 72 h (Trametinib)	IC50, cell viability 72 h (Olaparib)	IC50, cell viability 72 h (SG3199)	IC50, cell viability 72 h (Gemcitabine)	IC50, cell viability 72 h (Prexasertib)	IC50, cell viability 72 h (Alisertib)	IC50, cell viability 72 h (AZD7648)	IC50, cell viability 72 h (AZD5991)	IC50, cell viability 72 h (Selumetinib)	IC50, cell viability 72 h (Dasatinib)	IC50, cell viability 72 h (AZD2811)
Ramos-2G6-4C10 (Burkitt's Lymphoma)	78.3 nM	> 5000 nM	> 10000 nM	> 300 nM	3090 nM	> 3000 nM	3720 nM	> 20000 nM	> 10000 nM	> 10000 nM	9170 nM	> 10000 nM	> 1000 nM	684 nM	> 1000 nM	> 10000 nM	307 nM	> 1000 nM	> 10000 nM	5610 nM	15.9 nM	389 nM	> 10000 nM	> 10000 nM	> 1000 nM	> 10000 nM	> 1 nM	> 300 nM	10.5 nM	> 10000 nM	> 10000 nM	168 nM	> 10000 nM	> 2000 nM	> 1000 nM
CaR-1 (Colorectal Carcinoma)	28.2 nM	> 5000 nM	> 10000 nM	> 300 nM	> 10000 nM	> 3000 nM	> 10000 nM	> 20000 nM	> 10000 nM	6550 nM	> 10000 nM	> 10000 nM	> 1000 nM	957 nM	> 1000 nM	> 10000 nM	> 3000 nM	> 1000 nM	> 10000 nM	> 10000 nM	171 nM	> 1000 nM	> 10000 nM	> 10000 nM	> 1000 nM	> 10000 nM	> 1 nM	228 nM	279 nM	> 10000 nM	> 10000 nM	> 1000 nM	> 10000 nM	> 2000 nM	> 1000 nM
TE-9 (Esophageal Squamous Cell Carcinoma)	> 300 nM	> 5000 nM	> 10000 nM	> 300 nM	> 10000 nM	> 3000 nM	> 10000 nM	> 20000 nM	> 10000 nM	> 10000 nM	> 10000 nM	> 10000 nM	> 1000 nM	> 1000 nM	> 1000 nM	> 10000 nM	1150 nM	> 1000 nM	> 10000 nM	> 10000 nM	68 nM	> 1000 nM	> 10000 nM	> 10000 nM	> 1000 nM	> 10000 nM	> 1 nM	> 300 nM	548 nM	> 10000 nM	> 10000 nM	> 1000 nM	> 10000 nM	> 2000 nM	> 1000 nM
UM-UC-3 (Bladder Carcinoma)	15.3 nM	> 5000 nM	> 10000 nM	> 300 nM	> 10000 nM	> 3000 nM	> 10000 nM	> 20000 nM	> 10000 nM	8320 nM	3450 nM	> 10000 nM	> 1000 nM	> 1000 nM	> 1000 nM	> 10000 nM	> 3000 nM	> 1000 nM	> 10000 nM	> 10000 nM	66 nM	> 1000 nM	> 10000 nM	> 10000 nM	> 1000 nM	> 10000 nM	> 1 nM	58.2 nM	799 nM	> 10000 nM	> 10000 nM	> 1000 nM	> 10000 nM	> 2000 nM	> 1000 nM
NB10 (Neuroblastoma)	6.51 nM	3880 nM	> 10000 nM	> 300 nM	5830 nM	> 3000 nM	> 10000 nM	18400 nM	> 10000 nM	6730 nM	1950 nM	> 10000 nM	> 1000 nM	528 nM	> 1000 nM	> 10000 nM	892 nM	> 1000 nM	3740 nM	> 10000 nM	273 nM	664 nM	> 10000 nM	> 10000 nM	328 nM	> 10000 nM	> 1 nM	87.1 nM	92 nM	56.6 nM	> 10000 nM	> 1000 nM	> 10000 nM	> 2000 nM	> 1000 nM
